Test results reported in the supplement of paper PMC11061612.

Tests used:
A101D (Melanoma) = assay: Bliss excess, mean over the matrix (fraction); higher = more synergy
Summary of the method: (§1)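 After 24 hours at 37°C and 5% CO2 in 1536-well plates, cells in DMEM/F12 or RPMI plus 10% FBS received two-drug dose matrices for 72 hours. Viability came from CellTiter-Glo 2.0 luminescence and was scaled as inhibition, anchored at 0 by vehicle wells and at 1 by blank wells. Combination Emax is taken as the second-highest inhibition in the matrix, and Bliss excess as the observed combination effect less EA + EB − EA·EB, with EA and EB the single-agent effects.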

[1] = tested on: SW620 (Colorectal Carcinoma); assay: as above
Summary of the method: as §1

[2] = tested on: SK-HEP-1 (Hepatocellular Carcinoma); assay: as above
Summary of the method: as §1

[3] = tested on: UACC-812 (Breast Carcinoma); assay: as above
Summary of the method: as §1

[4] = tested on: JHH-2 (Hepatocellular Carcinoma); assay: as above
Summary of the method: as §1

PEO1 (Ovarian Carcinoma) = assay: as above
Summary of the method: as §1

[5] = tested on: KYSE-140 (Esophageal Squamous Cell Carcinoma); assay: as above
Summary of the method: as §1

[6] = tested on: ESO26 (Esophageal Adenocarcinoma); assay: as above
Summary of the method: as §1

[7] = tested on: Jurkat (T-Lymphoblastic Leukemia); assay: as above
Summary of the method: as §1

[8] = tested on: NCI-H1651 (Lung Adenocarcinoma); assay: as above
Summary of the method: as §1

[9] = tested on: NCI-H441 (Lung Adenocarcinoma); assay: as above
Summary of the method: as §1

NB13 (Neuroblastoma) [10] = assay: as above
Summary of the method: as §1

[11] = tested on: CA46 (Burkitt's Lymphoma); assay: as above
Summary of the method: as §1

EB2 (Burkitt's Lymphoma) = assay: as above
Summary of the method: as §1

5637 (Bladder Carcinoma) = assay: as above
Summary of the method: as §1

[12] = tested on: DMS-53 (Small Cell Lung Carcinoma); assay: combination Emax (second highest fraction inhibited in the dose matrix, 72 h); higher = more inhibition; extreme values may be limits of the assay
Summary of the method: as §1

[13] = tested on: JVM-2 (B-Cell Non-Hodgkin's Lymphoma); assay: as above
Summary of the method: as §1

[14] = tested on: HCC1428 (Breast Carcinoma); assay: as above
Summary of the method: as §1

NB13 (Neuroblastoma) [15] = assay: as above
Summary of the method: as §1

[16] = tested on: DU-4475 (Breast Carcinoma); assay: as above
Summary of the method: as §1
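Wherever Bliss excess, mean over the matrix is given: after 72 h of two-drug dosing.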

SMILES	Bliss excess (A101D (Melanoma))	Bliss excess [1]	Bliss excess [2]	Bliss excess [3]	Bliss excess [4]	Bliss excess (PEO1 (Ovarian Carcinoma))	Bliss excess [5]	Bliss excess [6]	Bliss excess [7]	Bliss excess [8]	Bliss excess [9]	Bliss excess (NB13 (Neuroblastoma) [10])	Bliss excess [11]	Bliss excess (EB2 (Burkitt's Lymphoma))	Bliss excess (5637 (Bladder Carcinoma))	combination Emax [12]	combination Emax [13]	combination Emax [14]	combination Emax (NB13 (Neuroblastoma) [15])	combination Emax [16]
CN(C)CCCOc1ccc(-c2ccc3ncc4c(c3c2)n(C2CCOCC2)c(=O)n4C)cn1 [AZD0156] + C=CCn1c(=O)c2cnc(Nc3ccc(N4CCN(C)CC4)cc3)nc2n1-c1cccc(C(C)(C)O)n1 [AZD1775] (first compound max 1 µM, partner max 1 µM)	-0.0616	-0.0262	-0.0574	-0.0561	-0.0233	-0.0442	-0.0031	-0.0322	0.0794	-0.0046	-0.0963	0.0215	-0.0283	-0.0322	-0.0851	0.148	0.888	0.125	0.906	0.924
CN(C)CCCOc1ccc(-c2ccc3ncc4c(c3c2)n(C2CCOCC2)c(=O)n4C)cn1 [AZD0156] + CCN(CCO)CCCOc1ccc2c(Nc3cc(CC(=O)Nc4cccc(F)c4)[nH]n3)ncnc2c1 [AZD2811] (first compound max 1 µM, 7x7, partner max 1 µM)	-0.0198	-0.0064	-0.0194	-0.0171	-0.031	-0.0421	0.025	-0.037	0.0543	-0.0167	-0.0776	0.0458	0.0059	-0.0245	0.0043	0.0911	0.719	0.161	0.479	0.392
CN(C)CCCOc1ccc(-c2ccc3ncc4c(c3c2)n(C2CCOCC2)c(=O)n4C)cn1 [AZD0156] + C[C@@H]1COCCN1C2=NC(=NC(=C2)C3(CC3)[S@](=N)(=O)C)C4=C5C=CNC5=NC=C4 [AZD6738] (first compound max 1 µM, 7x7, partner max 10 µM)	0.0058	0.0308	-0.0034	-0.0108	-0.0249	-0.0327	0.0481	0.0158	0.1	-0.0468	-0.0718	0.058	0.0799	-0.0562	-0.0155	0.134	0.849	0.132	0.906	0.913
C=CCn1c(=O)c2cnc(Nc3ccc(N4CCN(C)CC4)cc3)nc2n1-c1cccc(C(C)(C)O)n1 [AZD1775] + C[C@@H]1COCCN1C2=NC(=NC(=C2)C3(CC3)[S@](=N)(=O)C)C4=C5C=CNC5=NC=C4 [AZD6738] (first compound max 1 µM, partner max 10 µM)	-0.0089	0.0144	-0.0271	0.0176	-0.0817	-0.0234	0.0259	0.0102	0.038	-0.0105	-0.0834	0.0101	0.0061	0.0589	0.007	0.221	0.901	0.49	0.953	1
C=CCn1c(=O)c2cnc(Nc3ccc(N4CCN(C)CC4)cc3)nc2n1-c1cccc(C(C)(C)O)n1 [AZD1775] + O=C(c1cc(Cc2n[nH]c(=O)c3ccccc23)ccc1F)N1CCN(C(=O)C2CC2)CC1 [Olaparib] (first compound max 1 µM, partner max 10 µM)	-0.0542	-0.0395	–	-0.023	-0.0609	-0.013	-0.0418	-0.0518	-0.0088	-0.0869	-0.0662	0.0008	-0.0612	-0.019	-0.0551	0.148	0.888	0.375	0.935	0.933
CCN(CCO)CCCOc1ccc2c(Nc3cc(CC(=O)Nc4cccc(F)c4)[nH]n3)ncnc2c1 [AZD2811] + C=CCn1c(=O)c2cnc(Nc3ccc(N4CCN(C)CC4)cc3)nc2n1-c1cccc(C(C)(C)O)n1 [AZD1775] (first compound max 1 µM, partner max 1 µM)	-0.0166	-0.0367	0.0336	-0.0352	0.0198	-0.0025	-0.0155	-0.0247	0.0809	-0.0268	-0.0518	0.0265	0.0165	-0.0165	-0.0232	0.111	0.91	0.158	0.924	0.948
CCN(CCO)CCCOc1ccc2c(Nc3cc(CC(=O)Nc4cccc(F)c4)[nH]n3)ncnc2c1 [AZD2811] + C[C@@H]1COCCN1C2=NC(=NC(=C2)C3(CC3)[S@](=N)(=O)C)C4=C5C=CNC5=NC=C4 [AZD6738] (first compound max 1 µM, 7x7, partner max 10 µM)	-0.0414	-0.0451	-0.0397	-0.0303	-0.0196	-0.0718	0.0008	-0.0427	0.0336	-0.0555	-0.0324	-0.0727	-0.0698	0.0038	-0.0712	0.144	0.875	0.172	0.941	0.944
CCN(CCO)CCCOc1ccc2c(Nc3cc(CC(=O)Nc4cccc(F)c4)[nH]n3)ncnc2c1 [AZD2811] + O=C(c1cc(Cc2n[nH]c(=O)c3ccccc23)ccc1F)N1CCN(C(=O)C2CC2)CC1 [Olaparib] (first compound max 1 µM, 7x7, partner max 10 µM)	-0.0005	0.0318	-0.0121	0.0076	-0.0748	-0.0019	0.0429	-0.0311	0.0634	0.0136	-0.0417	0.0211	0.02	0.0141	-0.0349	0.181	0.738	0.218	0.626	0.576
CN(CCO)CC[C@H](CSc1ccccc1)Nc1ccc(S(=O)(=O)NC(=O)c2ccc(N3CCC([C@@H](O)c4ccccc4-c4ccc(Cl)cc4)CC3)cc2)cc1S(=O)(=O)C(F)(F)F [AZD4320] + CN(C)CCCOc1ccc(-c2ccc3ncc4c(c3c2)n(C2CCOCC2)c(=O)n4C)cn1 [AZD0156] (first compound max 1 µM, 7x7, partner max 1 µM)	-0.0298	-0.029	0.0146	-0.0283	-0.0486	-0.0753	-0.0257	-0.025	-0.0012	-0.026	-0.022	-0.0371	0.0092	-0.0028	-0.0311	0.965	0.487	0.541	1	0.871
COc1nnc2ccc(N3CCC(c4ccc(OCCN5CCN(C)C(=O)[C@H]5C)cc4)CC3)nn12 [AZD5153] + C=CCn1c(=O)c2cnc(Nc3ccc(N4CCN(C)CC4)cc3)nc2n1-c1cccc(C(C)(C)O)n1 [AZD1775] (first compound max 1 µM, partner max 1 µM)	-0.0825	-0.0753	-0.0166	-0.0066	-0.1	0.058	-0.0161	-0.0501	-0.0038	0.0305	-0.0322	-0.0645	-0.0572	-0.135	-0.0321	0.51	0.897	0.718	0.813	1
COc1nnc2ccc(N3CCC(c4ccc(OCCN5CCN(C)C(=O)[C@H]5C)cc4)CC3)nn12 [AZD5153] + CC1(C)CCC(CN2CCN(c3ccc(C(=O)NS(=O)(=O)c4ccc(NCC5CCOCC5)c([N+](=O)[O-])c4)c(Oc4cnc5[nH]ccc5c4)c3)CC2)=C(c2ccc(Cl)cc2)C1 [Venetoclax] (first compound max 1 µM, 7x7, partner max 1 µM)	-0.0731	-0.0671	-0.0153	-0.0947	-0.0068	-0.0771	-0.0597	-0.0776	-0.0444	-0.0338	-0.0137	-0.137	-0.052	-0.0677	-0.0407	0.887	0.739	0.621	0.474	0.8
COc1nnc2ccc(N3CCC(c4ccc(OCCN5CCN(C)C(=O)[C@H]5C)cc4)CC3)nn12 [AZD5153] + CCN(CCO)CCCOc1ccc2c(Nc3cc(CC(=O)Nc4cccc(F)c4)[nH]n3)ncnc2c1 [AZD2811] (first compound max 1 µM, 7x7, partner max 1 µM)	-0.104	-0.0002	-0.103	-0.0742	-0.0496	-0.0137	-0.0087	0.0002	0.0305	0.004	-0.0236	-0.0336	-0.0088	-0.102	-0.107	0.593	0.729	0.701	0.65	0.944
COc1nnc2ccc(N3CCC(c4ccc(OCCN5CCN(C)C(=O)[C@H]5C)cc4)CC3)nn12 [AZD5153] + C[C@@H]1COCCN1C2=NC(=NC(=C2)C3(CC3)[S@](=N)(=O)C)C4=C5C=CNC5=NC=C4 [AZD6738] (first compound max 1 µM, 7x7, partner max 10 µM)	-0.0186	0.0276	-0.0522	0.0371	-0.0066	0.0911	-0.0968	0.0343	0.0601	0.0178	0.0192	-0.0149	-0.0051	-0.0996	-0.0001	0.58	0.825	0.732	0.917	1
